Experimental data as given in article PMC9780937 (Molecules, 2022).
“Also recorded” adds a separate entry of the source.

How the values were obtained:
[1] = molecular target: human mu-opioid receptor (MOR), stably expressed in CHO cells (CHO-hMOR), in membranes (human) (UniProt P35372)
[2] = in vivo; cited from earlier work
mice [3] = test: Open-field test, spontaneous locomotor activity; type: in vivo, mouse (male CD1); settings: 7.4 µmol/kg s.c. daily for 4 days, vs saline; 30 min recording; n = 8 mice per group
[4] = system: neuropeptide FF receptor (NPFFR); set-up: method as in PMID 29708942; settings: in vitro; cited from earlier work
mice [5] = settings: chronic s.c., at effective antinociceptive doses (7.4 µmol/kg), ref 19 (suppl. ref 1); cited from earlier work
NOP receptor [6] = molecular target: NOP receptor; set-up: method as in suppl. ref 1; settings: radioligand competitive binding; ref suppl. ref 1; read-out: Binding affinity Ki, NOP receptor; cited from earlier work
mice [7] = system: mice; set-up: method as in earlier work; settings: s.c., 7.4 µmol/kg where stated (mechanical and thermal stimulation), ref 19 (suppl. ref 1); cited from earlier work
MOR [8] = system: MOR; set-up: method as in 3 sources, one per row (each row's own in cited_ref): ref 19 = [19]; PMID 29708942; doi:10.1097/j.pain.0000000000001262; 19. Drieu La Rochelle A. Guillemyn K. Dumitrascuta M. Martin C. Utard V. Quillet R. Schneider S. Daubeuf F. Willemse T. Mampuys P. A bifunctional-biased mu-opioid agonist-neuropeptide FF receptor anta ||| ref suppl. ref 1 ||| ref 19 (suppl. ref 1); settings: cited from earlier work
DOR [9] = system: DOR; set-up: method as in 2 sources, one per row (each row's own in cited_ref): ref 19 = [19]; PMID 29708942; doi:10.1097/j.pain.0000000000001262; 19. Drieu La Rochelle A. Guillemyn K. Dumitrascuta M. Martin C. Utard V. Quillet R. Schneider S. Daubeuf F. Willemse T. Mampuys P. A bifunctional-biased mu-opioid agonist-neuropeptide FF receptor anta ||| ref suppl. ref 1; settings: cited from earlier work
human MOR [10] = molecular target: T1, human MOR (Homo sapiens, UniProt P35372); test: cell-based; type: cell-based
T1 sequence (P35372 whole entry): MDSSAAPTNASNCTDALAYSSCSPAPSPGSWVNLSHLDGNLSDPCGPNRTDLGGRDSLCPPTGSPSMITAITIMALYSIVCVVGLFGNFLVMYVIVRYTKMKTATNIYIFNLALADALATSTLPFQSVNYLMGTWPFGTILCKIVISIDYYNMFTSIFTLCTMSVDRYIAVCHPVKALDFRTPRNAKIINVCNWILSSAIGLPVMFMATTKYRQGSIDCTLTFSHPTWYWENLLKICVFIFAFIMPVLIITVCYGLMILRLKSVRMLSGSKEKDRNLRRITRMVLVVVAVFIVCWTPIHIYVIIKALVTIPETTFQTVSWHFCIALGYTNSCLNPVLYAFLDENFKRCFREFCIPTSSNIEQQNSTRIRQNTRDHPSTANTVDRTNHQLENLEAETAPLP

mice [11] = test: Acetic acid-induced writhing assay (visceral pain); type: in vivo, mouse (male CD1); settings: s.c.
mice [12] = settings: chronic s.c., at effective antinociceptive doses (7.4 µmol/kg), ref 19 (suppl. ref 1); cited from earlier work; remark: listed apart in the source
KOR = system: KOR; set-up: method as in 2 sources, one per row (each row's own in cited_ref): ref 19 = [19]; PMID 29708942; doi:10.1097/j.pain.0000000000001262; 19. Drieu La Rochelle A. Guillemyn K. Dumitrascuta M. Martin C. Utard V. Quillet R. Schneider S. Daubeuf F. Willemse T. Mampuys P. A bifunctional-biased mu-opioid agonist-neuropeptide FF receptor anta ||| ref suppl. ref 1; settings: cited from earlier work
NOP receptor [13] = system: NOP receptor; set-up: method as in 2 sources, one per row (each row's own in cited_ref): ref 19 = [19]; PMID 29708942; doi:10.1097/j.pain.0000000000001262; 19. Drieu La Rochelle A. Guillemyn K. Dumitrascuta M. Martin C. Utard V. Quillet R. Schneider S. Daubeuf F. Willemse T. Mampuys P. A bifunctional-biased mu-opioid agonist-neuropeptide FF receptor anta ||| ref suppl. ref 1; settings: cited from earlier work
mice [14] = settings: acute s.c., at effective antinociceptive doses (7.4 µmol/kg), ref 19 (suppl. ref 1); cited from earlier work
MOR [15] = molecular target: MOR; set-up: method as in suppl. ref 1; settings: radioligand competitive binding; ref suppl. ref 1; read-out: Binding affinity Ki, MOR; cited from earlier work
mice [16] = test: Conditioned place preference (CPP) test, rewarding effects; type: in vivo, mouse (male CD1); settings: 7.4 µmol/kg s.c. daily for 4 days, vs saline; n = 8 mice per group
mice [17] = system: mice; set-up: method as in earlier work; settings: s.c., ref 19 (suppl. ref 1); cited from earlier work
mice [18] = system: mice; set-up: method as in 2 sources, ref 19 (suppl. ref 1) ||| ref 19 = [19]; PMID 29708942; doi:10.1097/j.pain.0000000000001262; 19. Drieu La Rochelle A. Guillemyn K. Dumitrascuta M. Martin C. Utard V. Quillet R. Schneider S. Daubeuf F. Willemse T. Mampuys P. A bifunctional-biased mu-opioid agonist-neuropeptide FF receptor anta; settings: s.c., cited from earlier work
DOR [19] = system: DOR; set-up: method as in 2 sources, one per row (each row's own in cited_ref): ref 19 = [19]; PMID 29708942; doi:10.1097/j.pain.0000000000001262; 19. Drieu La Rochelle A. Guillemyn K. Dumitrascuta M. Martin C. Utard V. Quillet R. Schneider S. Daubeuf F. Willemse T. Mampuys P. A bifunctional-biased mu-opioid agonist-neuropeptide FF receptor anta ||| ref suppl. ref 1; settings: cited from earlier work; remark: listed apart in the source
human MOR [20] = molecular target: T1, human MOR; test: biochemical; type: biochemical
NPFF1R = system: NPFF1R; set-up: method as in suppl. ref 1; settings: [35S]GTPγS binding assay; ref suppl. ref 1; cited from earlier work
mice [21] = settings: chronic s.c., at effective antinociceptive doses (7.4 µmol/kg), ref 19 (suppl. ref 1); cited from earlier work; remark: listed apart in the source
human MOR [22] = system: human MOR; set-up: method as in 2 sources, one per row (each row's own in cited_ref): ref 19 = [19]; PMID 29708942; doi:10.1097/j.pain.0000000000001262; 19. Drieu La Rochelle A. Guillemyn K. Dumitrascuta M. Martin C. Utard V. Quillet R. Schneider S. Daubeuf F. Willemse T. Mampuys P. A bifunctional-biased mu-opioid agonist-neuropeptide FF receptor anta ||| ref 19 (suppl. ref 1); settings: cited from earlier work
mice [23] = system: mice; set-up: method as in suppl. ref 1; settings: acute s.c., at effective antinociceptive doses, ref suppl. ref 1; cited from earlier work
mice [24] = system: mice; set-up: method as in suppl. ref 1; settings: acute s.c., at effective antinociceptive doses, ref suppl. ref 1; cited from earlier work; remark: listed apart in the source
human MOR [25] = test: Comparison of G protein activation ([35S]GTPγS binding) and β-arrestin2 recruitment (PathHunter)
NPFF2R = system: NPFF2R; set-up: method as in suppl. ref 1; settings: [35S]GTPγS binding assay; ref suppl. ref 1; cited from earlier work
mice [26] = settings: cited from earlier work
Excerpt: This is particularly important given the current rise in the abuse of prescription opioids, commonly MOR agonists. The MOR is established to play a major role in analgesia, but also on the undesirable opioid side effect of reward, with deletion of the gene encoding MOR (Oprm1) completely blocking opioid analgesia and reward behavior in rodents. To this aim, we used the conditioned place preference (CPP) paradigm, as described previously. The CPP is a w ...

mice [27] = settings: 15.5 µmol/kg s.c. chronic, day 1 to day 4; cited from earlier work
mice [28] = system: mice; set-up: method as in PMID 30571123; settings: s.c.; cited from earlier work
[29] = relative to maximal effect of DAMGO (100%), HEK293 cells, ref 19 (suppl. ref 1)
[30] = cAMP accumulation assay, ref suppl. ref 1

human mu-opioid receptor (MOR), stably expressed in CHO cells (CHO-hMOR), in membranes (human), sequence (P35372 whole entry): as above

## [D-Ala2,N-Me-Phe4,Gly-ol5]enkephalin (DAMGO) (peptide)
[1]
  [35S]GTPγS binding (G protein activation), membranes from CHO-hMOR cells: EC50: 35 nM
  [35S]GTPγS binding (G protein activation), membranes from CHO-hMOR cells: Emax (%, the reference set to 100): 100%

## COc1ccc2c3c1O[C@H]1C(=O)CC[C@@]4(O)[C@@H](C2)N(C)CC[C@]314 [oxycodone]
[2]
  Sedation and locomotor activity: known to produce sedation and to reduce locomotor activity

## Cc1cc(O)cc(C)c1C[C@H](N)C(=O)N[C@H](CCCNC(=N)N)C(=O)NC1Cc2ccccc2CN(CCC(=O)NC(CCCN2CCC(Cc3ccccc3)CC2)C(=O)N[C@@H](Cc2ccccc2)C(N)=O)C1=O (stereo partly drawn) [KGFF09, H-Dmt-DArg-Aba-βAla-Bpa-Phe-NH2]
Mice [3]
  Spontaneous locomotor activity, distance traveled: no and no impairment in the locomotor activity
[4]
  Functional profile at NPFFR: NPFFR antagonist
Mice [5]
  Opioid-induced hyperalgesia: no and reduced side effects and reduced opioid-induced side effects
NOP receptor [6]
  Ki: 209 nM
Mice [7]
  Antihyperalgesic effect, CFA-induced hyperalgesia: yes and potent and long-lasting antinociceptive activity and completely reduced pain behavior of mice to mechanical and thermal stimulation and very effective with long-lasting antinociceptive effects
MOR [8]; HEK293 cells expressing eYFP-tagged β-arrestin-2, MOR-Rluc8, ref 19 (suppl. ref 1), read-out: EC50, BRET β-arrestin2 recruitment (Table S3)
  EC50: 56.4 nM
MOR [8]; HEK293 cells, MOR
  BRET β-arrestin2 recruitment and bias: reduced efficacy (acting as a partial agonist) in inducing β-arrestin2 recruitment
MOR [8]
  Signaling bias at MOR in vitro, earlier study: G protein-biased MOR agonist
MOR [8]; [29]
  Emax, BRET β-arrestin2 recruitment (Table S3): 42%
DOR [9]; DOR vs MOR
  Binding affinity lower at DOR than at MOR: 77 fold
DOR [9]; radioligand competitive binding, ref suppl. ref 1, read-out: Binding affinity Ki, DOR
  Ki: 186 nM
Human MOR [10]
  β-arrestin2 recruitment: failed to robustly engage β-arrestin2 recruitment
Human MOR [10]; read-out: Emax, β-arrestin2 recruitment (PathHunter)
  Emax: 57 ± 3%
Mice [11]; 30 min after administration, Litchfield and Wilcoxon
  Antinociceptive ED50, writhing assay: 0.079 µmol/kg
Mice [11]; mice
  Effect in writhing assay: yes and dose-dependent inhibition of the writhing behavior
Mice [11]; ratio of ED50 (morphine ED50 from ref 24)
  Potency vs morphine, writhing assay: 17 fold
Mice [12]
  Antinociceptive/analgesic tolerance: no and reduced side effects and reduced opioid-induced side effects
KOR; [30]
  Emax, G protein activation, KOR: 15%
KOR; cAMP accumulation assay, ref suppl. ref 1, read-out: EC50, G protein activation, KOR
  EC50: > 10000 nM
KOR
  Functional profile at KOR: antagonist profile
NOP receptor [13]; [30]
  Emax, G protein activation, NOP receptor: 7%
NOP receptor [13]; cAMP accumulation assay, ref suppl. ref 1, read-out: EC50, G protein activation, NOP receptor
  EC50: > 10000 nM
NOP receptor [13]
  Functional profile at NOP receptor: antagonist profile
Mice [14]
  Respiratory depression: less acute side effects; also recorded: reduced opioid-induced side effects
MOR [15]
  Ki: 2.43 nM
Mice [16]
  Rewarding effect, CPP: no and no significant CPP response compared to saline-treated animals
Mice [17]
  Antinociception, warm-water tail-withdrawal test: yes and potent and long-lasting antinociceptive activity and very effective with long-lasting antinociceptive effects
Mice [18]; ref 19 (suppl. ref 1)
  Antinociception, radiant tail-flick test: yes and potent and long-lasting antinociceptive activity and very effective with long-lasting antinociceptive effects
Mice [18]
  ED90, tail-flick test: 7.4 µmol/kg
  Potency vs morphine, tail-flick test: three-fold more potent than morphine
  Relation of 7.4 µmol/kg to tail-flick ED50: three-fold antinociceptive ED50 dose
DOR [19]; [30]
  Emax, G protein activation, DOR: 90%
DOR [19]
  Functional profile at DOR: agonist activity at the delta opioid receptor (DOR)
Human MOR [20]
  Functional profile at MOR in [35S]GTPγS binding: full agonist with high G protein coupling potency
  Potency increase compared to DAMGO, G protein activation: four-fold increase in potency compared to DAMGO
Human MOR [20]; read-out: Emax, [35S]GTPγS binding
  Emax: 92 ± 9%
NPFF1R
  pA2, NPFF1R: 7.25
Mice [21]
  Withdrawal syndrome: no and reduced side effects and reduced opioid-induced side effects
Human MOR [22]; HEK293 cells co-expressing cAMP Glosensor-20F and human MOR, ref 19 (suppl. ref 1), read-out: EC50, cAMP accumulation, MOR
  EC50: 18.2 nM
Human MOR [22]; HEK293 cells, human MOR
  Functional profile in cAMP accumulation, MOR: potent and full MOR agonist
Human MOR [22]; [29]
  Emax, cAMP accumulation, MOR: 85%
Mice [23]
  Constipation: yes
Mice [24]
  Sedation/motor impairment: yes
Human MOR [25]; PathHunter vs [35S]GTPγS binding, human MOR
  Decrease in potency, β-arrestin2 recruitment vs G protein activation: 153 fold
Human MOR [25]; [35S]GTPγS binding vs PathHunter β-arrestin2
  Signaling bias at MOR: G protein-biased MOR agonist in vitro
NPFF2R
  pA2, NPFF2R: 7.77

## CN1CC[C@]23c4c5ccc(O)c4O[C@H]2[C@@H](O)C=C[C@H]3[C@H]1C5 [morphine]
[2]
  Sedation and locomotor activity: known to produce sedation and to reduce locomotor activity
Mice [26]; 15.5 µmol/kg daily, vs saline
  Rewarding effect of morphine, CPP: significant place preference compared to the saline group
Mice [26]; mice
  CPP with narcotic drugs: produce CPP
Mice [27]
  Spontaneous locomotor activity of morphine: significant hyperlocomotion from day 1 to day 4
Mice [28]
  ED50, writhing assay (mass): 0.437 mg/kg
  ED50, writhing assay (molar): 1.36 µmol/kg

## KGFF09 (H-Dmt-DArg-Aba-βAla-Bpa-Phe-NH2) (peptide)
[1]
  [35S]GTPγS binding (G protein activation), membranes from CHO-hMOR cells: EC50: 8.28 nM
  [35S]GTPγS binding (G protein activation), membranes from CHO-hMOR cells: Emax (% of DAMGO): 92%
